Structures are written as SMILES. Where only a bound is given, the exact number is not on record here.

Experiment [1] has as its target Angiotensin II receptor (Homo sapiens) (UniProt P30556+P50052). Description: In vitro functional antagonistic affinity measured against angiotensin II receptor in paired rings of rabbit aorta. Type of experiment: tissue-based. The following applies: Oryctolagus cuniculus, target entry is the homologue from another species.
Experiment [2] relates to Rattus norvegicus. Description: In vivo potency determined as dose given iv to produce reduction in angiotensin II pressor response in normotensive rats. The following applies: read-out: ID50 (the source's name). Type of experiment: functional.
Experiment [3] concerns the target T1, Type-1 angiotensin II receptor (Bos taurus, UniProt P25104).
T1 sequence (P25104 whole entry): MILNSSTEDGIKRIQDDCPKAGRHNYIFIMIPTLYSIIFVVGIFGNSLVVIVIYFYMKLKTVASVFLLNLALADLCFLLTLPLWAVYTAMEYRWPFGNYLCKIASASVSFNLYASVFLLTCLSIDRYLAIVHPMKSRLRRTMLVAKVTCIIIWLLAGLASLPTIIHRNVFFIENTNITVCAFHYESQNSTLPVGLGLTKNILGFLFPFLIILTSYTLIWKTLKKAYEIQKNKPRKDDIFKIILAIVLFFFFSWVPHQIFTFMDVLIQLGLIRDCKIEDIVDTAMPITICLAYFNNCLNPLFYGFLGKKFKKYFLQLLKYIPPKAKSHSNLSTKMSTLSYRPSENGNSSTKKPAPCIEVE
Description: Inhibition of [125I]AII binding to angiotensin II receptor of bovine adrenal cortex. The conditions noted are these: read-out: EC50 (the source's name). Type of experiment: tissue-based.

Experiment [4] concerns Rattus norvegicus. Briefly: Tested for in vitro inhibition of specific binding of [125I]AII for bolus injection of 0.3 mg/kg lasting up to 90 min post dose. Format: functional. The following applies: 1.5 h.

In experiment [1], `CCc1ccc2c(O)c(-c3ccccc3)c(=O)n(Cc3ccc(-c4ccccc4C(=O)O)cc3)c2c1` displayed a negative-log KB (pKB) of 7.2. Consider `CCCc1cc2ncnc-2c(O)n1Cc1ccc(-c2ccccc2-c2nn[nH]n2)cc1`, for which the pKB in experiment [1] stood at 9.1. Also, the ED50 in experiment [2] came to 0.18 mg/kg. Consider `CCCCc1nc(Cl)c(CO)n1Cc1ccc(-c2ccccc2-c2nnn[nH]2)cc1` [LOSARTAN], for which, in experiment [1], the pKB is 8.3. In experiment [2], the ED50 amounted to 1.2 mg/kg. Consider `Cc1ccc2c(O)c(-c3ccccc3)c(=O)n(Cc3ccc(-c4ccccc4-c4nn[nH]n4)cc3)c2n1`, for which the pKB in experiment [1] came out at 7. Regarding `CCc1cc2c(O)c(-c3ccccc3)c(=O)n(Cc3ccc(-c4ccccc4-c4nn[nH]n4)cc3)c2s1`, in experiment [3], the IC50 turned out to be 90 nM. Further, the ED50 in experiment [2] was determined as 5 mg/kg. In experiment [1], `CCCCc1nc(Cl)c(CO)n1Cc1ccc(-c2ccccc2C(=O)O)cc1` had a negative-log KB (pKB) of 7.1. On to `COc1ccc2c(O)c(-c3ccccc3)c(=O)n(Cc3ccc(-c4ccccc4-c4nn[nH]n4)cc3)c2c1`, for which, in experiment [1], the pKB is 7.4. Further, the ED50 in experiment [2] was found to be 2.5 mg/kg. For `CS(=O)(=O)c1ccc2c(O)c(-c3ccccc3)c(=O)n(Cc3ccc(-c4ccccc4-c4nn[nH]n4)cc3)c2c1`, the IC50 in experiment [3] was roughly 30000 nM. The same molecule came in with a pKB in experiment [1] of 5.9.

Take `CCOc1ccc2c(O)c(Cc3ccccc3)c(=O)n(Cc3ccc(-c4ccccc4C(=O)O)cc3)c2c1`: the pKB in experiment [1] came to 7.8.

The molecule `CCCCc1c(O)c2ccc(OC)cc2n(Cc2ccc(-c3ccccc3C(=O)O)cc2)c1=O` came in with a pKB in experiment [1] of 6.6. Take `CCCc1cc2nc(O)nc-2c(O)n1Cc1ccc(-c2ccccc2-c2nn[nH]n2)cc1`: in experiment [1], the pKB was determined as 6.4. `COc1ccc2c(O)c(C(C)=O)c(=O)n(Cc3ccc(-c4ccccc4C(=O)O)cc3)c2c1`: the pKB in experiment [1] stood at 6.6. Turning to `O=c1c(-c2ccccc2)c(O)c2c(n1Cc1ccc(-c3ccccc3-c3nnn[nH]3)cc1)CCC2`, the IC50 in experiment [3] is 1250 nM. For the molecule `Cc1ccc2c(O)c(-c3ccccc3)c(=O)n(Cc3ccc(-c4ccccc4-c4nnn[nH]4)cc3)c2n1`, the IC50 in experiment [3] is 1250 nM.

Turning to `CCOc1ccc2c(O)c(-c3ccccc3)c(=O)n(Cc3ccc(-c4ccccc4C(=O)O)cc3)c2c1`, in experiment [3], the IC50 amounted to 1800 nM. In addition, the pKB in experiment [1] is 7.7. Consider `COc1ccc2c(O)c(-c3ccccc3)c(=O)n(Cc3ccc(-c4ccccc4-c4nnn[nH]4)cc3)c2c1`, for which, in experiment [3], the IC50 came out at 2200 nM. For the molecule `O=c1c(-c2ccccc2)c(O)c2sccc2n1Cc1ccc(-c2ccccc2-c2nn[nH]n2)cc1`, the IC50 in experiment [3] came out at 6000 nM. The molecule further had a pKB in experiment [1] of 7.4. Also, the ED50 in experiment [2] came out at 3.2 mg/kg. Consider `CCc1cc2c(O)cc(=O)n(Cc3ccc(-c4ccccc4-c4nn[nH]n4)cc3)c2s1`, for which the pKB in experiment [1] is 9.6. Take `CCOc1ccc2c(O)c(-c3ccccc3)c(=O)n(Cc3ccc(-c4ccccc4-c4nnn[nH]4)cc3)c2c1`: in experiment [3], the IC50 stood at 500 nM. On to `COc1ccc2c(O)c(-c3ccccc3)c(=O)n(Cc3ccc(-c4ccccc4C(=O)O)cc3)c2c1`, for which the IC50 in experiment [3] was found to be 9500 nM. The molecule also came in with a negative logarithm of the KB (pKB) in experiment [1] of 6.7.

In experiment [1], `O=c1c(Cc2ccccc2)c(O)c2ccccc2n1Cc1ccc(-c2ccccc2-c2nn[nH]n2)cc1` yielded a pKB of 7.5. Turning to `CCCc1cc2c(ncn2C)c(=O)n1Cc1ccc(-c2ccccc2-c2nn[nH]n2)cc1`, the pKB in experiment [1] stood at 7.6. This pKB and that of the molecule before are within 0.2 log units of each other.

Molecule `CCCc1cc2ncn(C)c2c(=O)n1Cc1ccc(-c2ccccc2-c2nn[nH]n2)cc1` registered a negative-log KB (pKB) in experiment [1] of 10.2. For the same molecule, the ED50 in experiment [2] was less than 0.3 mg/kg. Also, the inhibition in vivo at 0.3 mg/kg in experiment [4] was greater than 50%. Regarding `CSc1ccc2c(O)c(-c3ccccc3)c(=O)n(Cc3ccc(-c4ccccc4-c4nn[nH]n4)cc3)c2c1`, in experiment [3], the IC50 turned out to be 600 nM. In experiment [1], this molecule had a pKB of 6.6. The molecule `CCOc1ccc2c(O)cc(=O)n(Cc3ccc(-c4ccccc4-c4nn[nH]n4)cc3)c2c1` showed a pKB in experiment [1] of 8.9. Still for that read-out and setting: the same measure for `O=c1c(-c2ccccc2)c(O)c2ccc([N+](=O)[O-])cc2n1Cc1ccc(-c2ccccc2-c2nn[nH]n2)cc1`: 7.5. The same measure, in the same setting: the same measure for `O=c1c(-c2ccccc2)c(O)c2c(n1Cc1ccc(-c3ccccc3-c3nn[nH]n3)cc1)CCC2`: 7.2; for `COc1ccc2c(O)cc(=O)n(Cc3ccc(-c4ccccc4C(=O)O)cc3)c2c1`: 6.3. Take `O=c1c(-c2ccccc2)c(O)c2ccccc2n1Cc1ccc(-c2ccccc2-c2nn[nH]n2)cc1`: the IC50 in experiment [3] amounted to 1700 nM. Further, the pKB in experiment [1] was determined as 7.2. In addition, the ED50 in experiment [2] came out at 1.2 mg/kg.

With `COc1ccc2c(O)cc(=O)n(Cc3ccc(-c4ccccc4-c4nn[nH]n4)cc3)c2c1`, the negative logarithm of the KB (pKB) in experiment [1] came to 8.3. In experiment [2], the ED50 came to 1.08 mg/kg.

Consider `CCOc1ccc2c(O)c(-c3ccccc3)c(=O)n(Cc3ccc(-c4ccccc4-c4nn[nH]n4)cc3)c2c1`, for which, in experiment [1], the pKB is 7.1. Besides, the ED50 in experiment [2] amounted to 1.3 mg/kg.

(Values after ChEMBL document CHEMBL1127230, “New non-peptide angiotensin II receptor antagonists. 2: structure - activity relationship of a series of annelated 2(1H)-pyridinones” (Bioorg Med Chem Lett, 1994).)
